Assay [1] concerns E. coli NfnB nitroreductase, wild type. The settings on record: Knox et al., 1992, cited from earlier work.
Assay [2] deals with BliNTR, NTR from Bacillus licheniformis. The settings on record: Emptage et al., 2009, cited from earlier work.
Assay [3] has as its system E. coli NfnB variant N71S/F124K. As to conditions: Searle et al., 2004 and Race et al., 2007, cited from earlier work.
Assay [4] concerns E. coli NfsA nitroreductase. The settings on record: Vass et al., 2009, cited from earlier work; for Km: read-out: Km^CB1954.
A further assay relates to HCT116 tumours. Put plainly: Mouse xenograft tumour growth delay with CB1954. Type of assay: in vivo, NMRI nu/nu mice (human colorectal HCT116 carcinoma). The procedure: Human colorectal HCT116 carcinoma cells were grown in DMEM medium supplemented with 10% FBS, trypsinized and injected subcutaneously in 100 μl PBS/ . . . % matrigel at a concentration of 5.10^6 cells in the abdominal flank of adult NMRI nu/nu mice. As soon as tumours were palpable, tumour volumes were determined three times per week by measuring three orthogonal diameters using calipers. Volumes were calculated according to the formula V=A×B×C×/6. All experiments were conducted in accordance with local institutional guidelines of the University of Leuven, approved by the animal ethics committee and procedures were according to the guidelines defined by the UKCCCR (12). Treatment was initiated when tumours reached a volume of ˜250 mm^3. Five days post spore injection (5.10^7 cfu/100 μl), sham or prodrug treatment was started. CB1954 was prepared as described previously (13) and administered intraperitoneally (i.p.) at a concentration of 15 mg/kg for five consecutive days. At the end of the follow-up period, tumours and normal tissues were excised, ground and serially diluted to determine colonization levels (14). Tumour growth delay was determined for each individual tumour within the different groups as the time necessary to reach three times their initial volume at the start of the treatment. One-way ANOVA with a Tukey's posttest was used to determine statistical significance between the different growth curves.
Since strains E1 and N1 express stably-integrated NTR under the regulatory control of a strong promoter without inclusion of any antibiotic resistance gene, it was next determined whether administration of these clinically-applicable strains in combination with prodrug administration to tumour-bearing animals would result in anti-tumour efficacy. It was first evaluated whether inactivation of pyrE affected the tumour-colonizing capacity of systemically administered spores. Mice bearing subcutaneously transplanted HCT116 tumours were injected and tumour colonization tested seven days later. […] On average 10^9 cfu were found per gram of tumour tissue. Colonization was also confirmed by gram staining. In tumours, C. sporogenes vegetative cells are visible as purple, gram-positive rods (FIG. 3 C). As expected, C. sporogenes vegetative cells could not be detected in any of the normal tissues investigated. […] Spores were collected, quantified and intravenously administered at a concentration of 5.10×10^7 per animal when tumours reached a volume of ˜250 mm^3, followed five days later by sham or prodrug administration. […] In all cases, strain specific signals could be detected thereby confirming stability of the integrated construct.

The test system of assay [5] is Vibrio fischeri FRase I variant F124W. The settings on record: Swe et al., 2012, cited from earlier work.

The source of these data is patent publication US10183062B2, “Treatment for cancer” (The University of Nottingham, priority 2013, dated 2019).

Each structure is given as a SMILES string. Read-outs that look alike come from different tables or passages of the source.

Turning to `NC(=O)c1cc(N2CC2)c([N+](=O)[O-])cc1[N+](=O)[O-]` [CB1954, 5-(aziridin-1-yl)-2,4-dinitrobenzamide], the Kcat was 6 S^−1 in assay [1] (CB1954); 6.4 S^−1 in assay [2] (CB1954); 7.5 S^−1 in assay [3] (CB1954); 2.60 (NADH) S^−1 in assay [4] (CB1954, cofactor NADH); 20.9 (NADPH) S^−1 in assay [4] (CB1954, cofactor NADPH); 26.6 S^−1 in assay [5] (CB1954). For the same molecule, the Km (as a rule, the concentration of substrate that gives half-maximal velocity) was 862 µM in assay [1] (read-out: Km^CB1954); 30 µM in assay [2] (read-out: Km^CB1954); 170 µM in assay [3] (read-out: Km^CB1954); 18 µM in assay [4] (cofactor NADH); 140 µM in assay [4] (cofactor NADPH); 259 µM in assay [5] (read-out: Km^CB1954). Further, the “tumours completely disappeared, E1/CB1954 group” value in the assay with HCT116 tumours (CB1954 15 mg/kg i.p. x 5 days + E1 (E. coli NfnB) spores) is reported as “two out of 16”. The “tumours completely disappeared, N1/CB1954 group” value in the assay with HCT116 tumours (CB1954 15 mg/kg i.p. x 5 days + N1 (NmeNTR) spores) is given as “four out of 16”. Besides, the “tumour growth delay, pyrE mutant spores alone or with CB1954” value in the assay on HCT116 tumours (CB1954 15 mg/kg i.p. x 5 days, pyrE mutant spores) is “small growth delay”. Also, the “tumour growth delay, E1 or N1 with CB1954” value in the assay on HCT116 tumours (CB1954 15 mg/kg i.p. x 5 days, E1 (NfnB) or N1 (NmeNTR) C. sporogenes spores, most pronounced for N1 (p<0.001, one way ANOVA)) is listed as “significant growth delay”.
